Measured values reported in the supplement of paper PMC10307832.

Legend:
Experiment in all cases: relative viability (nuclei count vs DMSO), 5 days (fraction); higher = more cells survive
HCC-78 = tested on: HCC-78
How it was run: (§1)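 Lung cancer cell lines, seeded in 1536-well plates, were treated the following day by pin tool with a single drug or with five library-drug doses (not always all listed) in √10 steps on top of a fixed anchor-drug dose. Cells were fixed and nuclei stained in one step after 5 days, and nuclei were counted. Relative viability is the nuclei count for treated wells divided by that for vehicle wells, reported as medians of duplicate plates.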

LCLC-103H = tested on: LCLC-103H
How it was run: as §1

NCI-H2126 = tested on: NCI-H2126
How it was run: as §1

HCC-827 = tested on: HCC-827
How it was run: as §1

NCI-H2085 = tested on: NCI-H2085
How it was run: as §1

NCI-H23 = tested on: NCI-H23
How it was run: as §1

SK-LU-1 = tested on: SK-LU-1
How it was run: as §1

RERF-LC-KJ = tested on: RERF-LC-KJ
How it was run: as §1

LK-2 = tested on: LK-2
How it was run: as §1

NCI-H1975 = tested on: NCI-H1975
How it was run: as §1

NCI-H3122 = tested on: NCI-H3122
How it was run: as §1

ChaGo-K-1 = tested on: ChaGo-K-1
How it was run: as §1

HCC-366 = tested on: HCC-366
How it was run: as §1

EMC-BAC-2 = tested on: EMC-BAC-2
How it was run: as §1

LU99A = tested on: LU99A
How it was run: as §1

NCI-H2405 = tested on: NCI-H2405
How it was run: as §1

NCI-H1666 = tested on: NCI-H1666
How it was run: as §1

EPLC-272H = tested on: EPLC-272H
How it was run: as §1

SW 1573 = tested on: SW 1573
How it was run: as §1

SW 900 = tested on: SW 900
How it was run: as §1

LOU-NH91 = tested on: LOU-NH91
How it was run: as §1

LXF-289 = tested on: LXF-289
How it was run: as §1

HCC-44 = tested on: HCC-44
How it was run: as §1

## CC(C)Oc1cc(Nc2nc(N[C@@H](C)c3ccc(F)cn3)ncc2Cl)n[nH]1 [AZ23] + Nc1ncn([C@H]2C[C@H](O)[C@@H](CO)O2)c(=O)n1 [Decitabine] (partner 2 µM)
HCC-78; first compound 0.01 µM
  relative viability: 0.725
HCC-78; first compound 0.03162 µM
  relative viability: 0.777
HCC-78; first compound 0.3162 µM
  relative viability: 0.728
LCLC-103H; first compound 0.01 µM
  relative viability: 0.765
LCLC-103H; first compound 0.03162 µM
  relative viability: 0.691
LCLC-103H; first compound 0.3162 µM
  relative viability: 0.743
NCI-H2126; first compound 0.01 µM
  relative viability: 0.612
NCI-H2126; first compound 0.03162 µM
  relative viability: 0.615
NCI-H2126; first compound 0.3162 µM
  relative viability: 0.558
HCC-827; first compound 0.01 µM
  relative viability: 0.361
HCC-827; first compound 0.03162 µM
  relative viability: 0.316
HCC-827; first compound 0.3162 µM
  relative viability: 0.323
NCI-H2085; first compound 0.01 µM
  relative viability: 0.565
NCI-H2085; first compound 0.03162 µM
  relative viability: 0.539
NCI-H2085; first compound 0.3162 µM
  relative viability: 0.5
NCI-H23; first compound 0.03162 µM
  relative viability: 0.307
NCI-H23; first compound 0.3162 µM
  relative viability: 0.274
SK-LU-1; first compound 0.03162 µM
  relative viability: 0.651
SK-LU-1; first compound 0.3162 µM
  relative viability: 0.643
RERF-LC-KJ; first compound 0.01 µM
  relative viability: 0.783
RERF-LC-KJ; first compound 0.03162 µM
  relative viability: 0.74
RERF-LC-KJ; first compound 0.3162 µM
  relative viability: 0.817
LK-2; first compound 0.01 µM
  relative viability: 0.337
LK-2; first compound 0.03162 µM
  relative viability: 0.306
LK-2; first compound 0.3162 µM
  relative viability: 0.272
NCI-H1975; first compound 0.01 µM
  relative viability: 0.409
NCI-H1975; first compound 0.03162 µM
  relative viability: 0.451
NCI-H1975; first compound 0.3162 µM
  relative viability: 0.414
NCI-H3122; first compound 0.01 µM
  relative viability: 0.411
NCI-H3122; first compound 0.03162 µM
  relative viability: 0.455
NCI-H3122; first compound 0.3162 µM
  relative viability: 0.469
ChaGo-K-1; first compound 0.01 µM
  relative viability: 0.567
ChaGo-K-1; first compound 0.03162 µM
  relative viability: 0.512
ChaGo-K-1; first compound 0.3162 µM
  relative viability: 0.519
HCC-366; first compound 0.01 µM
  relative viability: 0.319
HCC-366; first compound 0.03162 µM
  relative viability: 0.373
HCC-366; first compound 0.3162 µM
  relative viability: 0.333
EMC-BAC-2; first compound 0.01 µM
  relative viability: 0.966
EMC-BAC-2; first compound 0.03162 µM
  relative viability: 0.998
EMC-BAC-2; first compound 0.3162 µM
  relative viability: 0.949
LU99A; first compound 0.01 µM
  relative viability: 1.03
LU99A; first compound 0.03162 µM
  relative viability: 0.85
LU99A; first compound 0.3162 µM
  relative viability: 0.829
NCI-H2405; first compound 0.01 µM
  relative viability: 0.774
NCI-H2405; first compound 0.03162 µM
  relative viability: 0.805
NCI-H2405; first compound 0.3162 µM
  relative viability: 0.721
NCI-H1666; first compound 0.01 µM
  relative viability: 0.711
NCI-H1666; first compound 0.03162 µM
  relative viability: 0.755
NCI-H1666; first compound 0.3162 µM
  relative viability: 0.672
EPLC-272H; first compound 0.03162 µM
  relative viability: 0.344
EPLC-272H; first compound 0.3162 µM
  relative viability: 0.389
SW 1573; first compound 0.01 µM
  relative viability: 0.699
SW 1573; first compound 0.03162 µM
  relative viability: 0.553
SW 1573; first compound 0.3162 µM
  relative viability: 0.612
SW 900; first compound 0.01 µM
  relative viability: 0.442
SW 900; first compound 0.3162 µM
  relative viability: 0.352
LOU-NH91; first compound 0.01 µM
  relative viability: 0.817
LOU-NH91; first compound 0.03162 µM
  relative viability: 0.888
LOU-NH91; first compound 0.3162 µM
  relative viability: 0.818
LXF-289; first compound 0.01 µM
  relative viability: 0.469
LXF-289; first compound 0.03162 µM
  relative viability: 0.374
LXF-289; first compound 0.3162 µM
  relative viability: 0.403
HCC-44; first compound 0.01 µM
  relative viability: 1.03
HCC-44; first compound 0.03162 µM
  relative viability: 0.973
HCC-44; first compound 0.3162 µM
  relative viability: 0.979
